According to ChEMBL document CHEMBL1126996, “Structure-activity relationships of 6-substituted benzopyran-4-carbothioamide potassium channel openers” (Bioorg Med Chem Lett, 1993):

Species on record: Rattus norvegicus
Assay: Percent of intrinsic activity for vasorelaxant effect
Type: functional

| SMILES | IA [%] |
| --- | --- |
| C/N=C(/S)C1=CC(C)(C)Oc2ccc(Cl)cc21 | 73.1 |
| C/N=C(/S)C1=CC(C)(C)Oc2ccc(C(F)(F)C(F)(F)F)cc21 | 55.4 |
| C/N=C(/S)C1=CC(C)(C)Oc2ccc([N+](=O)[O-])cc21 | 63.5 |
| C/N=C(/S)C1=CC(C)(C)Oc2ccc(S(C)(=O)=O)cc21 | 69.8 |
| CCc1ccc2c(c1)C(/C(S)=N\C)=CC(C)(C)O2 | 78.7 |
| C/N=C(/S)C1=CC(C)(C)Oc2ccccc21 | 89.3 |
| C/N=C(/S)C1=CC(C)(C)Oc2ccc(OC(F)(F)F)cc21 | 76.1 |
| C/N=C(/S)C1=CC(C)(C)Oc2ccc(Br)cc21 | 67.5 |
| C/N=C(/S)C1=CC(C)(C)Oc2ccc(C#N)cc21 | 89 |
| C/N=C(/S)C1=CC(C)(C)Oc2ccc(C(F)(F)F)cc21 | 73 |
| C/N=C(/S)C1=CC(C)(C)Oc2ccc(S(=O)(=O)c3ccccc3)cc21 | 73.7 |
| C/N=C(/S)C1=CC(C)(C)Oc2ccc(OC(C)=O)cc21 | 76.1 |
| CNC(=S)C1=CC(C)(C)Oc2ccc(OC)cc21 | 61.5 |
| CC1(C)Oc2ccc(C#N)cc2[C@@H](N2CCCC2=O)[C@@H]1O [CROMAKALIM] | 74.7 |

Species on record: Rattus norvegicus
Assay: Negative logarithm of the molar concentration required to relax rat aorta precontracted with 30 mM KCl by 50% of IA
Type: functional

| EC50 [nM] | SMILES |
| --- | --- |
| 37.2 | C/N=C(/S)C1=CC(C)(C)Oc2ccc(Cl)cc21 |
| 12.6 | C/N=C(/S)C1=CC(C)(C)Oc2ccc(C(F)(F)C(F)(F)F)cc21 |
| 1.35 | C/N=C(/S)C1=CC(C)(C)Oc2ccc([N+](=O)[O-])cc21 |
| 457 | C/N=C(/S)C1=CC(C)(C)Oc2ccc(S(C)(=O)=O)cc21 |
| 324 | CCc1ccc2c(c1)C(/C(S)=N\C)=CC(C)(C)O2 |
| 4270 | C/N=C(/S)C1=CC(C)(C)Oc2ccccc21 |
| 4.07 | C/N=C(/S)C1=CC(C)(C)Oc2ccc(OC(F)(F)F)cc21 |
| 9.33 | C/N=C(/S)C1=CC(C)(C)Oc2ccc(Br)cc21 |
| 24.5 | C/N=C(/S)C1=CC(C)(C)Oc2ccc(C#N)cc21 |
| 2.04 | C/N=C(/S)C1=CC(C)(C)Oc2ccc(C(F)(F)F)cc21 |
| 19.1 | C/N=C(/S)C1=CC(C)(C)Oc2ccc(S(=O)(=O)c3ccccc3)cc21 |
| 95.5 | C/N=C(/S)C1=CC(C)(C)Oc2ccc(OC(C)=O)cc21 |
| 417 | CNC(=S)C1=CC(C)(C)Oc2ccc(OC)cc21 |
| 170 | CC1(C)Oc2ccc(C#N)cc2[C@@H](N2CCCC2=O)[C@@H]1O [CROMAKALIM] |
